Converted amounts (≈) assume the structure as drawn.
system: HIV; experiment: Anti-HIV activity in cell culture: inhibition of HIV replication, virus in supernatant quantified by reinfection of human fetal lung cells; format: cell-based; conditions: Human immunodeficiency virus 1; chronically HIV-infected human fetal lung cells; concentration causing 50 % inhibition of virus replication
Source text: Die Verbindungen der vorliegenden Erfindung weisen eine antivirale Wirksamkeit auf und können somit beispielsweise zur Behandlung von HIV-bedingten Krankheiten oder Infektionen eingesetzt werden. Der Nachweis der Anti-HIV-Wirksamkeit erfolgt in Zell- oder Gewebekulturen, wobei die direkte Hemmung der HIV-Replikation gemessen wird.
Zunächst erfolgt eine Behandlung von HIV-infizierten humanen T-Lymphomzellen bzw. HIV-infizierten humanen fetalen Lungenzellen mit der zu untersuchenden Verbindung in Verdünnungsreihe. Anschließend erfolgt eine Quantifizierung der Virusmenge im Überstand durch Neuinfektion von humanen fetalen Lungenzellen. Die Abnahme der entstandenen HIV-positiven Zellkolonien gilt als direktes Maß für die antivirale Wirksamkeit der untersuchten Verbindung.
In der folgenden Tabelle sind diejenigen Konzentrationen angegeben, die eine 50 %-ige Hemmung der Virusreplikation bewirken (IC₅₀-Werte).

SMILES	IC50 [µg/mL]
CCCCCCCCCCCCSC(CCCCCCCCCCCC)COP(=O)([O-])OCC[N+](C)(C)C (stereo not drawn) [Beispiel 1, 2-Dodecylmercapto-tetradecyl-1-phosphorsäure-monocholinester]	30 (≈ 51.7 µM)
CCCCCCCCCCCCOC(CCCCCCCCCCCC)COP(=O)([O-])OCC[N+](C)(C)C (stereo not drawn) [Beispiel 2, 2-Dodecyloxytetradecvl-1-phosphorsäure-monocholinester]	1 (≈ 1.77 µM)
CCCCCCCCCCCCSCC(CCCCCCCCCCC)COP(=O)([O-])OCC[N+](C)(C)C (stereo not drawn) [Beispiel 3, 2-Dodecylmercaptomethyl-tridecyl-1-phosphorsäure-monocholinester]	12 (≈ 20.7 µM)
